{"source": "patent US20070053942A1", "about": "“Disinfectant and/or bactericidal aqueous compositions” (priority 2003, published 2007)", "assay": "solubility in water", "format": "physicochemical", "note": "Structures can show the parent of a compound that is named as a salt."}
{"molecule": "CCCCCCCCNC(=N)NC(=N)NCc1ccc(Cl)c(Cl)c1", "note": "[olanexidine hydrochloride, 1-(3,4-dichlorobenzyl)-5-octylbiguanide]", "values": [{"measurement": "solubility (in water) of olanexidine hydrochloride alone", "setting": "at 0° C.", "value": 0.02, "unit": "%"}, {"measurement": "solubility in water", "setting": "at 0° C.", "value": 0.02, "unit": "W/V %"}, {"measurement": "Solubility", "setting": "at 25° C., water, pH adjusted to 6", "value": 0.05, "unit": "W/V %"}]}
